One test concerns the target T1, M4 muscarinic receptor (Homo sapiens, UniProt P08173).
T1 construct: expressed in transfected cells; host or cells: CHO (M4-CHO)
T1 sequence (P08173 1-479): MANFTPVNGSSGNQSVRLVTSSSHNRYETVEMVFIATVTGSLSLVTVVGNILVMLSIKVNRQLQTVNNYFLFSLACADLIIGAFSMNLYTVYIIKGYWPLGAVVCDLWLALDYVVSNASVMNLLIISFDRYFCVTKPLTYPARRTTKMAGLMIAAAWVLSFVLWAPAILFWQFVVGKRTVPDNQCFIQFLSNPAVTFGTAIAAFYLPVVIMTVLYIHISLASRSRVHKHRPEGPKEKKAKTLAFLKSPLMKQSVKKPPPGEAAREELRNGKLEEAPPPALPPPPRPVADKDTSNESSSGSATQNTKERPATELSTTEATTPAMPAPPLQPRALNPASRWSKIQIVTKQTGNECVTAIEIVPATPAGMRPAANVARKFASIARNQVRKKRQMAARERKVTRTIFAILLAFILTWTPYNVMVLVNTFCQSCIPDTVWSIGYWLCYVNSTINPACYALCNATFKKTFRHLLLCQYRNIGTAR
Put plainly: Functional mobilization of intracellular calcium (FLIPR) in M4-CHO cells. It is filed as cell-based. As to conditions: Table 4; for Emax: 100% efficacy is the maximum response obtained with the Carbachol control; for M4 Activity: modulating M4 receptor. Put shortly:
(§1)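 FLIPR Ca2+ read, ex 488/em 540 nm, 60 s. Recombinant CHO lines (M1 or M4), dye-loaded Fluo-3 AM 60-90 min at 37° C, probenecid 1 mM, pH 7.4. Agonist: compound alone; inhibition: 15 min compound pre-incubation, then carbachol at EC80 for that subtype.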
(Calcium flux is commonly read through the fluorescence of an indicator in the cells.)

The target of the next test is T2, M1 muscarinic receptor (Homo sapiens, UniProt P11229).
T2 construct: expressed in transfected cells; host or cells: CHO (M1-CHO)
T2 sequence (P11229 1-460): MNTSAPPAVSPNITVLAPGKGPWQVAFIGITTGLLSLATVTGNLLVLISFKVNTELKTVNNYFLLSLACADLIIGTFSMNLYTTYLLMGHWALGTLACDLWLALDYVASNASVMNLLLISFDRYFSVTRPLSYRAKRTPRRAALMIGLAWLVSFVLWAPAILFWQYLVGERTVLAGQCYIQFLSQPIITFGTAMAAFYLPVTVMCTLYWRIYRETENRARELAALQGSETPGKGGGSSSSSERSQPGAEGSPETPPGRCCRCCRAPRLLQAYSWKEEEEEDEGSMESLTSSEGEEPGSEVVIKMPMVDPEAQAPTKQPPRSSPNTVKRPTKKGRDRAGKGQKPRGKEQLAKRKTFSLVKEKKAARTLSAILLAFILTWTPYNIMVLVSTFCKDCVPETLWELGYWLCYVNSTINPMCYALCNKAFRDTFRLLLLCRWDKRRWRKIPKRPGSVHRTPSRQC
The test is described as follows: Functional mobilization of intracellular calcium (FLIPR) in M1-CHO cells. The test is classed as cell-based. As to conditions: Table 4; for Emax: 100% efficacy is the maximum response obtained with the Carbachol control; for M1 Activity: modulating M1 receptor. Put shortly:
as §1

SMILES strings stand for the structures.

On to `CCOC(=O)N1C2CCC1CC(N1CCC3(CC1)CN(C(C)=O)c1c(C(F)(F)F)cccc13)C2` (stereo not drawn) [compound 686], for which, at M4 muscarinic receptor, the maximal response (Emax) is below 25% and the “M4 Activity” value is on record as “x (activity was measured to be greater than 5.0 μM)”. Also, at M1 muscarinic receptor, the Emax was below 25% and the “M1 Activity” value is “x (activity was measured to be greater than 5.0 μM)”.
Consider `CN(C)C(=O)N[C@H]1CC2(CCN(CCC3CC4CC[C@@H]3C4)CC2)c2ccccc21` (stereo partly drawn) [compound 687], for which, on M4 muscarinic receptor, the Emax is below 25% and the “M4 Activity” value is given as “x (activity was measured to be greater than 5.0 μM)”. Moreover, at M1 muscarinic receptor, the Emax is below 25% and the “M1 Activity” value is recorded as “x (activity was measured to be greater than 5.0 μM)”.
Regarding `CCOC(=O)N1CCC(N2CCC3(CC2)CN(C(=O)N2CCCCC2)c2ccccc23)CC1` [compound 688], on M4 muscarinic receptor, the Emax lay in the range of 25 to 100% and the “M4 Activity” value is “xxx (activity was measured to be less than 2.0 μM)”. On M1 muscarinic receptor, the Emax was in the range of 25 to 100% and the “M1 Activity” value is reported as “xxx (activity was measured to be less than 2.0 μM)”.
With `CCOC(=O)N1CCC(N2CCC3(CC2)CN(C2CCC4(CC2)OCCO4)c2ccc(F)cc23)CC1` [compound 689], at M4 muscarinic receptor, the maximal response (Emax) lay in the range of 25 to 100% and the “M4 Activity” value is reported as “xxx (activity was measured to be less than 2.0 μM)”. Also, on M1 muscarinic receptor, the Emax was above 100% and the “M1 Activity” value is reported as “xxx (activity was measured to be less than 2.0 μM)”.
On to `CC(=O)N[C@H]1CC2(CCN(C3CCCCC3)C2)c2ccc(F)cc21` (stereo partly drawn) [compound 691], for which, on M4 muscarinic receptor, the Emax was below 25% and the “M4 Activity” value is reported as “x (activity was measured to be greater than 5.0 μM)”. At M1 muscarinic receptor, the Emax is 25 to 100% and the “M1 Activity” value is reported as “x (activity was measured to be greater than 5.0 μM)”.
Take `CC(=O)N[C@H]1CC2(CCN(CC3CC4C=CC3C4)C2)c2ccc(F)cc21` (stereo partly drawn) [compound 692]: at M4 muscarinic receptor, the Emax fell in the range of 25 to 100% and the “M4 Activity” value is “xxx (activity was measured to be less than 2.0 μM)”. Moreover, on M1 muscarinic receptor, the Emax was 25 to 100% and the “M1 Activity” value was “xxx (activity was measured to be less than 2.0 μM)”.
As for `CCC#CCOC(=O)N1CCC(N2CCC3(CC2)CN(C(=O)N(C)C)c2ccc(F)cc23)CC1` [compound 694], on M4 muscarinic receptor, the Emax was in the range of 25 to 100% and the “M4 Activity” value is listed as “xxx (activity was measured to be less than 2.0 μM)”. In addition, at M1 muscarinic receptor, the Emax fell in the range of 25 to 100% and the “M1 Activity” value is “xxx (activity was measured to be less than 2.0 μM)”.
For the compound `CCOC(=O)N1CC[C@H](CN2CCC3(CC2)CN(C(=O)N(C)C)c2ccc(F)cc23)C1` [compound 695], at M4 muscarinic receptor, the Emax lay within 25 to 100% and the “M4 Activity” value is “xxx (activity was measured to be less than 2.0 μM)”. For the same compound, at M1 muscarinic receptor, the maximal effect (Emax) lay in the range of 25 to 100% and the “M1 Activity” value is on record as “xxx (activity was measured to be less than 2.0 μM)”.
Consider `CC(=O)N[C@H]1CCC2(CCN([C@@H]3CC4CC[C@@H]3C4)CC2)c2ccccc21` [compound 696], for which, on M4 muscarinic receptor, the Emax was 25 to 100% and the “M4 Activity” value is “xxx (activity was measured to be less than 2.0 μM)”. In addition, on M1 muscarinic receptor, the maximal effect (Emax) lay in the range of 25 to 100%; the “M1 Activity” value was “xx (activity was measured to be between 2.0 μM and 5.0 μM)”.
As to `CC(=O)CN1CCC(N2CCC3(CC2)CN(C(C)=O)c2ccc(F)cc23)CC1` [compound 697], on M4 muscarinic receptor, the Emax was below 25% and the “M4 Activity” value was “x (activity was measured to be greater than 5.0 μM)”. For the same compound, on M1 muscarinic receptor, the Emax is 25 to 100% and the “M1 Activity” value is given as “x (activity was measured to be greater than 5.0 μM)”.
Take `CCOC(=O)N1CCCC(N2CCC3(CC2)CN(C(=O)N(C)C)c2ccc(F)cc23)CC1` (stereo not drawn) [compound 698]: at M4 muscarinic receptor, the Emax was above 100% and the “M4 Activity” value was “xxx (activity was measured to be less than 2.0 μM)”. At M1 muscarinic receptor, the Emax is above 100% and the “M1 Activity” value is “xxx (activity was measured to be less than 2.0 μM)”.
In the case of `CCCN1CCC(N2CCC3(CC2)CN(C(C)=O)c2ccc(F)cc23)CC1` [compound 699], at M4 muscarinic receptor, the Emax is below 25% and the “M4 Activity” value is given as “x (activity was measured to be greater than 5.0 μM)”. For the same compound, at M1 muscarinic receptor, the Emax is below 25% and the “M1 Activity” value is listed as “x (activity was measured to be greater than 5.0 μM)”.
With `CCOC(=O)N1CCC(N2CCC3(CC2)CN(c2nc(C)ns2)c2ccccc23)CC1` [compound 700], on M4 muscarinic receptor, the Emax is above 100% and the “M4 Activity” value is on record as “xxx (activity was measured to be less than 2.0 μM)”. At M1 muscarinic receptor, the Emax is above 100% and the “M1 Activity” value is listed as “xxx (activity was measured to be less than 2.0 μM)”.
Consider `CN(C)C(=O)N1CC2(CCN(C3CCN(C(=O)C4CC4)CC3)CC2)c2cc(F)ccc21` [compound 701], for which, on M4 muscarinic receptor, the Emax was in the range of 25 to 100% and the “M4 Activity” value was “xxx (activity was measured to be less than 2.0 μM)”. Further, at M1 muscarinic receptor, the Emax lay in the range of 25 to 100% and the “M1 Activity” value is recorded as “xxx (activity was measured to be less than 2.0 μM)”.
For the compound `CCO/N=C1\CC2(CCN(CC3CCCCC3)CC2)c2cc(Cl)ccc21` [compound 702], on M4 muscarinic receptor, the maximum response (Emax) fell in the range of 25 to 100% and the “M4 Activity” value is recorded as “x (activity was measured to be greater than 5.0 μM)”. At M1 muscarinic receptor, the Emax was in the range of 25 to 100% and the “M1 Activity” value was “x (activity was measured to be greater than 5.0 μM)”.
Turning to `CC(=O)N[C@H]1CC2(CCN(C3CCN(C)CC3)CC2)c2ccccc21` [compound 703], at M4 muscarinic receptor, the Emax is below 25% and the “M4 Activity” value is listed as “x (activity was measured to be greater than 5.0 μM)”. Also, on M1 muscarinic receptor, the Emax was below 25% and the “M1 Activity” value is “x (activity was measured to be greater than 5.0 μM)”.
Consider `CC(C)OC(=O)N1CCCC(N2CCC3(CC2)CN(C(=O)N(C)C)c2ccc(F)cc23)CC1` (stereo not drawn) [compound 704], for which, on M4 muscarinic receptor, the Emax was 25 to 100% and the “M4 Activity” value is recorded as “xxx (activity was measured to be less than 2.0 μM)”. Further, on M1 muscarinic receptor, the Emax was 25 to 100% and the “M1 Activity” value is reported as “xxx (activity was measured to be less than 2.0 μM)”.
Take `Fc1ccc2c(c1)C1(CCN(C3CC4CCC3O4)CC1)CN2` (stereo not drawn) [compound 705]: on M4 muscarinic receptor, the Emax was below 25% and the “M4 Activity” value is “x (activity was measured to be greater than 5.0 μM)”. Moreover, at M1 muscarinic receptor, the Emax is below 25% and the “M1 Activity” value was “x (activity was measured to be greater than 5.0 μM)”.
As for `CCCOC(=O)N1CC[C@@H](CN2CCC3(CC2)CN(C(=O)N(C)C)c2ccc(F)cc23)C1` [compound 706], on M4 muscarinic receptor, the maximum response (Emax) lay within 25 to 100% and the “M4 Activity” value is listed as “xxx (activity was measured to be less than 2.0 μM)”. Also, on M1 muscarinic receptor, the Emax is 25 to 100% and the “M1 Activity” value is recorded as “xxx (activity was measured to be less than 2.0 μM)”.
Turning to `CC(=O)N[C@H]1CC2(CCN(C3CCN(c4cccc(F)n4)CC3)CC2)c2ccccc21` [compound 708], at M4 muscarinic receptor, the Emax is 25 to 100% and the “M4 Activity” value is reported as “xxx (activity was measured to be less than 2.0 μM)”. In addition, at M1 muscarinic receptor, the maximum response (Emax) fell in the range of 25 to 100% and the “M1 Activity” value was “xxx (activity was measured to be less than 2.0 μM)”.
As for `CC(=O)NC1CCC2(CCN(CCC3CCOCC3)CC2)c2ccccc21` (stereo not drawn) [compound 709], on M4 muscarinic receptor, the Emax is below 25% and the “M4 Activity” value is “xxx (activity was measured to be less than 2.0 μM)”. Moreover, on M1 muscarinic receptor, the maximal effect (Emax) was 25 to 100% and the “M1 Activity” value is “xxx (activity was measured to be less than 2.0 μM)”.
For the compound `CC(=O)N1CC2(CCN(C3CCN(c4nn[nH]n4)CC3)CC2)c2ccccc21` [compound 710], at M4 muscarinic receptor, the Emax lay in the range of 25 to 100% and the “M4 Activity” value is reported as “x (activity was measured to be greater than 5.0 μM)”. Besides, at M1 muscarinic receptor, the maximum response (Emax) was 25 to 100% and the “M1 Activity” value is reported as “x (activity was measured to be greater than 5.0 μM)”.
As for `CN(C)C(=O)N1CC2(CCN(C3CCN(c4ccccc4F)CC3)CC2)c2cc(F)ccc21` [compound 711], on M4 muscarinic receptor, the maximum response (Emax) is below 25% and the “M4 Activity” value was “x (activity was measured to be greater than 5.0 μM)”. For the same compound, on M1 muscarinic receptor, the maximal effect (Emax) was in the range of 25 to 100%; the “M1 Activity” value is “xx (activity was measured to be between 2.0 μM and 5.0 μM)”.
With `CCOC(=O)N1CCC(N2CCC3(CC2)CN(C(=O)NCc2ccccc2)c2ccccc23)CC1` [compound 712], on M4 muscarinic receptor, the Emax was in the range of 25 to 100% and the “M4 Activity” value is on record as “xxx (activity was measured to be less than 2.0 μM)”. Moreover, on M1 muscarinic receptor, the Emax was 25 to 100% and the “M1 Activity” value was “xxx (activity was measured to be less than 2.0 μM)”.

The Emax is the greatest response seen or fitted, relative to the assay's reference.

The record behind these values is US7786141B2 (Vertex Pharmaceuticals Incorporated, priority 2004, dated 2010).
